Test results reported in patent publication US20020182694A1, “Novel gene and polypeptide which opposes the Fas pathway” (priority 2001, published 2002).
One block for each compound: values may come before it.

Columns and labels:
[1] = system: HeLa cells; assay: Fas induced killing of HeLa cells treated with pharmacological agents, count of viable trypan blue excluding cells; format: cell-based, human; details: for effect on Fas induced PCD of HeLa cells, in words (viable cell count): anti-Fas antibody treated HeLa cells, NAC: 50 ng/ml anti-Fas, 5 days, FIG. 6, 8E, 8G, 8H
Protocol: HeLa cells, 1.6×10^5 cells/well were plated in 6 wells plates. 20-24 hours later cells were treated with various concentrations of sulfinpyrazone (Sigma/Aldrich) in 1% DMSO for 15 minutes prior to the addition of 200 ng/ml anti-Fas antibody (clone CH-11, Kamiya Biomedical Company). The number of viable, trypan blue (Gibco/BRL) excluding cells that remained attached to the plate following rinsing with PBS was counted 17 hours post treatment. […]

[2] = system: HeLa cells; assay: Apoptotic index (DAPI staining) of HeLa cells treated with anti-Fas antibody; format: cell-based, human
Protocol: To generate HeLa cells that over-express Nrf2, the human Nrf2 cDNA (Moi et al. 1994) was cloned into the retrovirus expression vector pBABEpuro (Morgenstern and Land 1990) by standard methods. The plasmid was transiently transfected into […] and virus was collected at 36, 48, 60 and 72 hours post transfection. At each time point, freshly collected virus stock was filtered through a […], mixed with […] polybrene (Sigma/Aldrich) and applied to HeLa cells. 24 hours after the last addition of the virus, the cells were subjected to selection in […] Puromycin (Sigma/Aldrich). The pool of Puromycin resistant colonies was expanded. […] Apoptotic index was calculated as the ratio of number of dead cells (containing condensed and/or fragmented chromosomes) to the total number of cells. Average apoptotic index calculated from ten fields from duplicate wells is presented.
For bioassays, HeLa cells, at 8.3×10^4 cells/well were plated in 12 wells plates. […] 20 hours later the apoptotic index of treated cells was determined as described for the Nrf2 bioassays.
HeLa cells, 1.6×10^5 cells/well were plated in 6 wells plates. […] The number of viable, trypan blue (Gibco/BRL) excluding cells that remained attached to the plate following rinsing with PBS was counted 17 hours post treatment. Alternatively, the apoptotic index of treated cells was determined as described for the Nrf2 bioassays.

[3] = molecular target: Fas/CD95/Apo-1 on HeLa cells (human) (UniProt P25445); assay: cell-based or functional assay
Chain of UniProt P25445 (P25445 26-335): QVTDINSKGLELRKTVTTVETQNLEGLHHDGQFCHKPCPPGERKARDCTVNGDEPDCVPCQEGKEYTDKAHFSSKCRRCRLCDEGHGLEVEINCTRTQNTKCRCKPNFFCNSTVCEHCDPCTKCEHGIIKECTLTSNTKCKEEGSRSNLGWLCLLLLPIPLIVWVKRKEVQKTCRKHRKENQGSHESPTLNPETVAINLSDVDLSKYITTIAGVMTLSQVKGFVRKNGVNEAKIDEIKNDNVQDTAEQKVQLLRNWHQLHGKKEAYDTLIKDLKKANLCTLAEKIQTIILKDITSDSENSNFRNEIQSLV

Compound: NCCNS(=O)(=O)c1ccc(Cl)c2ccncc12 [CKI-7, N-(2-aminoethyl)-5-chloroisoquinoline-8-sulfonamide]
fold more sensitive to FAS induced PCD than the untreated cells ([1]; CKI-7 in 1% DMSO added an hour before 200 ng/ml anti-FAS antibody, counted 17 hours post treatment, FIG. 6): 3.9 fold
effect on Fas induced PCD of HeLa cells, in words (viable cell count) [1]: sensitizes

Compound: O=c1oc2ccccc2c(O)c1Cc1c(O)c2ccccc2oc1=O [Dicumarol]
killing (apoptotic index) in cells treated with anti-Fas antibody and Dicumarol ([2]; 100 uM Dicumarol, 200 ng/ml anti-Fas antibody, vehicle (0 uM) approximately 25%, FIG. 8F): approximately 100%
effect on Fas induced PCD of HeLa cells, in words (apoptotic index) ([2]; anti-Fas antibody treated HeLa cells, FIG. 8C, 8D, 8F legends): sensitizes
fold more sensitive to Fas induced killing compared to cells treated with vehicle, measured by the number of viable cells ([1]; 100 uM Dicumarol, 200 ng/ml anti-Fas antibody, counted 17 hours post treatment, FIG. 8E): 2.8 fold
effect on Fas induced PCD of HeLa cells, in words (viable cell count) [1]: sensitizes

Compound: CC(=O)N[C@@H](CS)C(=O)O [NAC, N-acetyl Cysteine]
effect on Fas induced PCD of HeLa cells, in words (viable cell count) [1]: strongly protects
effect on Fas induced PCD of HeLa cells, in words (viable cell count) ([1]; listed as N-acetyl cysteine): protects

Compound: O=C1C(CC[S+]([O-])c2ccccc2)C(=O)N(c2ccccc2)N1c1ccccc1 (stereo not shown) [sulfinpyrazone]
sensitization to Fas induced killing compared to treatment with vehicle alone ([1]; 2 mM sulfinpyrazone, 200 ng/ml anti-Fas antibody, counted 17 hours post treatment, FIG. 8G): approximately 4 fold

apoptotic index (DAPI staining), HeLa cells infected with vector alone (Control-1) [3]: 89%
apoptotic index (DAPI staining), HeLa cells infected with vector alone (Control-2) [3]: 87%
apoptotic index (DAPI staining), HeLa cells with vehicle [3]: 25%
apoptotic index (DAPI staining), HeLa cells with vehicle (0 uM Dicumarol) [3]: 25%
Compound: Anti-Fas antibody (clone CH-11, Kamiya Biomedical Company, catalog number MC-060)
